{"source": "patent US20240124483A1", "about": "“Methods for the Treatment of Fibrotic Disease” (SHY Therapeutics, LLC, priority 2021, published 2024)", "assay": "Assessment of Plasma Exposure in DBA/2J mice", "type": "in vivo, mouse", "details": "for half-life / AUC(0-t) / Cmax / AUC(0-inf) / Tmax: male, DBA/2J, mouse plasma; for half-life / AUC(0-t) / Cmax / AUC(0-inf): mouse, plasma, po; for AUC(0-inf): read-out: AUCINFobs", "key": {"[1]": {"details": "25 mg/kg, Group 2: 25 mg/kg PO, Vehicle 1"}, "[2]": {"details": "100 mg/kg, Group 3: 100 mg/kg PO, Vehicle 1"}, "[3]": {"details": "100 mg/kg, Group 4: 100 mg/kg PO, Vehicle 2"}}, "note": "Where two headings read alike, the source gives them in different places.", "data": [{"smiles": "COCCNc1nc(-c2nccn2C)nc2sc(-c3cccc(OC)c3Cl)c(-c3ccccc3)c12", "note": "[Compound 9, 6-(2-Chloro-3-methoxyphenyl)-N-(2-methoxyethyl)-2-(1-methyl-1H-imidazol-2-yl)-5-phenylthieno[2,3-d]pyrimidin-4-amine]", "values": [{"measurement": "Exposures (AUC), dose dependence", "setting": "Groups 2 and 3: 25 and 100 mg/kg PO, Vehicle 1", "value": "dose proportional"}, {"measurement": "half-life", "setting": "25 mg/kg, Group 2: 25 mg/kg PO, Vehicle 1 (0.5% HPMC with 0.1% Tween 80)", "value": 2.9, "unit": "h"}, {"measurement": "AUC(0-t)", "setting": "[1]", "value": 3880, "unit": "ng·h/mL"}, {"measurement": "Cmax", "setting": "[1]", "value": 703, "unit": "ng/mL"}, {"measurement": "AUC(0-inf)", "setting": "[1]", "value": 3900, "unit": "ng·h/mL"}, {"measurement": "AUC(0-t)", "setting": "[2]", "value": 16700, "unit": "ng·h/mL"}, {"measurement": "Cmax", "setting": "[2]", "value": 1960, "unit": "ng/mL"}, {"measurement": "half-life", "setting": "[2]", "value": 2.11, "unit": "h"}, {"measurement": "AUC(0-inf)", "setting": "[2]", "value": 16700, "unit": "ng·h/mL"}, {"measurement": "half-life", "setting": "100 mg/kg, Group 4: 100 mg/kg PO, Vehicle 2 (Solubilized Lipid)", "value": 2.3, "unit": "h"}, {"measurement": "AUC(0-t)", "setting": "[3]", "value": 17100, "unit": "ng·h/mL"}, {"measurement": "Cmax", "setting": "[3]", "value": 2090, "unit": "ng/mL"}, {"measurement": "AUC(0-inf)", "setting": "[3]", "value": 17200, "unit": "ng·h/mL"}, {"measurement": "Tmax", "setting": "Group 2: 25 mg/kg PO, Vehicle 1", "value": 4, "unit": "h"}, {"measurement": "Tmax", "setting": "Group 3: 100 mg/kg PO, Vehicle 1", "value": 4, "unit": "h"}, {"measurement": "Exposures (AUC), Vehicle 1 compared to Vehicle 2", "setting": "oral dosing (PO), 100 mg/kg", "value": "similar"}]}]}
